Assay results taken from ChEMBL document CHEMBL1152626, “Glucose-based spiro-isoxazolines: a new family of potent glycogen phosphorylase inhibitors” (Bioorg Med Chem, 2009).
pKi: −log10 of the molar value.

Target: T1, Glycogen phosphorylase, muscle form (Oryctolagus cuniculus, UniProt P00489)
T1 sequence (P00489 whole entry): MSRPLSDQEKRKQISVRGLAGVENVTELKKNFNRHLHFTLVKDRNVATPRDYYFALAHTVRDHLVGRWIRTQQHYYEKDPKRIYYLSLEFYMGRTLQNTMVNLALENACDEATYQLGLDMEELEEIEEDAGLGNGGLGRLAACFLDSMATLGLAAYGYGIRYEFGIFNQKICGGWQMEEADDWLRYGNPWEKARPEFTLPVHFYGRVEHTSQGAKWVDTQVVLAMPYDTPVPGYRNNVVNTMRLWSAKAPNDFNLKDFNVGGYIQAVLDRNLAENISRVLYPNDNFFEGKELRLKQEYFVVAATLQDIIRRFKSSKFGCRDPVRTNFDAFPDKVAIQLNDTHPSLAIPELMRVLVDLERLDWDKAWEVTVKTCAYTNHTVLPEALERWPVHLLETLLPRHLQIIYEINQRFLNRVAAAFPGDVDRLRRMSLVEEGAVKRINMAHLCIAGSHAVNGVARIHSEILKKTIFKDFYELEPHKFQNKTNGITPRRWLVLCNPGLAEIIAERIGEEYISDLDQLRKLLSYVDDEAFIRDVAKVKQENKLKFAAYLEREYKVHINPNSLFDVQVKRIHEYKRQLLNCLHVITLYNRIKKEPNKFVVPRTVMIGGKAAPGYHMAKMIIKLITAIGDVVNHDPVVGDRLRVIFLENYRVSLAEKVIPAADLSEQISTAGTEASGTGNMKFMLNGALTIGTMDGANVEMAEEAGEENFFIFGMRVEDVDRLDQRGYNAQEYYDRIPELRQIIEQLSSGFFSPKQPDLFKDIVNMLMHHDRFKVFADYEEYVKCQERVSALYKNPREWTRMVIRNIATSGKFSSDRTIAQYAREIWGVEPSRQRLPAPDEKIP
Assay: Inhibition of rabbit muscle glycogen phosphorylase b

Point of comparison: `NN1C(=O)N[C@@]2(O[C@H](CO)[C@@H](O)[C@H](O)[C@H]2O)C1=O`, pKi 3.84. Against it:
- O=C1NC(=O)[C@]2(C[C@H](O)[C@@H]([C@@H](O)CO)O2)N1 — 3.18 log units lower, 0.66
- O=C1N[C@@]2(O[C@H](CO)[C@@H](O)[C@H](O)[C@H]2O)C(=O)N1O — 0.57 log units higher, 4.41
- CN1C(=O)N[C@@]2(O[C@H](CO)[C@@H](O)[C@H](O)[C@H]2O)C1=O — 0.92 log units lower, 2.92
- CC(=O)NN1C(=O)N[C@@]2(O[C@H](CO)[C@@H](O)[C@H](O)[C@H]2O)C1=O — 0.58 log units lower, 3.26
- O=C1NC(=S)N[C@@]12OC[C@@H](O)[C@H](O)[C@H]2O — lower, < 2.00
- O=C1NC(=O)[C@@]2(C[C@H](O)[C@@H]([C@@H](O)CO)O2)N1 — 1.75 log units lower, 2.09
- O=C1NC(=O)[C@@]2(N1)OC[C@@H](O)[C@H](O)[C@H]2O — lower, < 1.94
- O=C1NCC(O)NC12O[C@H](CO)[C@@H](O)[C@H](O)[C@H]2O (some centres undefined) — 0.38 log units higher, 4.22
